# Laboratory results as given in patent publication US8703805B2 (Exelixis Patent Company LLC, priority 2005, dated 2014).
# pEC50: −log10 of the molar value.
# Test system: LXRα and/or LXRβ
# Experiment: LXR/LXRE co-transfection assay (luciferase reporter, CV-1 cells)
# Type: cell-based, human
# Details: IC50 or EC50 for LXR (LXRα and/or LXRβ, not distinguished), tested as described in Example 109, CV-1 cells
# Procedure, shortened: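 Luciferase readout after 20 h compound exposure at 37 °C in CV-1 cells transiently expressing human LXRα or LXRβ with RXRα and an LXRE-driven reporter. Dose-response over 8 points at ½-log spacing, 4 wells each, fitted for EC50/IC50; values average ≥3 independent experiments, efficacy as % of high control.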
row,SMILES,pEC50
1,"C/C(=N\O)c1cc(-c2ccc(-c3cccc(S(C)(=O)=O)c3)s2)n(-c2ccccc2Cl)n1 [Example 1176, (1E)-1-[1-(2-chlorophenyl)-5-{5-[3-(methylsulfonyl)phenyl]-2-thienyl}-1H-pyrazol-3-yl]ethanone oxime]",> 6.00
2,"CCOC(=O)COc1cccc(-c2ccc(-c3cc(C(C)(C)O)nn3-c3ccccc3Cl)cc2)c1 [Example 1297, ethyl ({4′-[1-(2-chlorophenyl)-3-(1-hydroxy-1-methylethyl)-1H-pyrazol-5-yl]biphenyl-3-yl}oxy)acetate]",5.00 to 6.00
3,"Cc1cc(-c2cccc(S(C)(=O)=O)c2)ccc1-c1cc(C(=O)N2CCCC2)nn1-c1c(Cl)cccc1Cl [Example 148, (1-(2,6-dichlorophenyl)-5-(3-methyl-3′-(methylsulfonyl)biphenyl-4-yl)-1H-pyrazol-3-yl)(pyrrolidin-1-yl)methanone]",> 6.00
4,"CC(C)(O)c1nn(-c2ccccc2OC(F)(F)F)c(-c2ccc(-c3cccc(S(C)(=O)=O)c3)s2)c1Cl [Example 1367, 2-(4-chloro-5-{5-[3-(methylsulfonyl)phenyl]-2-thienyl}-1-{2-[(trifluoromethyl)oxy]phenyl}-1H-pyrazol-3-yl)propan-2-ol]",> 6.00
5,"Cn1c(-c2cccc(S(C)(=O)=O)c2)ccc1-c1cc(C(C)(C)O)nn1-c1ccccc1Cl [Example 1383, 2-(1-(2-chlorophenyl)-5-(1-methyl-5-(3-(methylsulfonyl)phenyl)-1H-pyrrol-2-yl)-1H-pyrazol-3-yl)propan-2-ol]",> 6.00
6,"Cc1cc(-c2cccc(S(C)(=O)=O)c2)ccc1-c1c(Cl)c(C(C)(C)O)nn1-c1cnccc1C(F)(F)F [Example 107, 2-(4-chloro-5-(3-methyl-3′-(methylsulfonyl)biphenyl-4-yl)-1-(4-(trifluoromethyl)pyridin-3-yl)-1H-pyrazol-3-yl)propan-2-ol]",> 6.00
7,"CC(C)(O)c1nn(-c2cccc(F)c2Cl)c(-c2ccc(-c3cccc(S(C)(=O)=O)c3)s2)c1Br [Example 1372, 2-[4-bromo-1-(2-chloro-3-fluorophenyl)-5-{5-[3-(methylsulfonyl)phenyl]-2-thienyl}-1H-pyrazol-3-yl]propan-2-ol]",> 6.00

# The next lines start with the values.
row,pEC50,SMILES
1,> 6.00,"CC(C)(O)c1cc(-c2ccccc2C(F)(F)F)n(-c2ccc(-c3cccc(S(C)(=O)=O)c3)cc2Cl)n1 [Example 140, 2-(1-(3-chloro-3′-(methylsulfonyl)biphenyl-4-yl)-5-(2-(trifluoromethyl)phenyl)-1H-pyrazol-3-yl)propan-2-ol]"
2,5.00 to 6.00,"CS(=O)(=O)c1cc(-c2ccc(-c3cc(C(F)(F)F)nn3-c3cc(Cl)ccc3Cl)s2)ccc1O [Example 1247, 4-{5-[1-(2,5-dichlorophenyl)-3-(trifluoromethyl)-1H-pyrazol-5-yl]-2-thienyl}-2-(methylsulfonyl)phenol]"
3,> 6.00,"CO/N=C(\C)c1cc(-c2ccc(-c3cccc(S(C)(=O)=O)c3)s2)n(-c2ccccc2Cl)n1 [Example 1177, (1E)-1-[1-(2-chlorophenyl)-5-{5-[3-(methylsulfonyl)phenyl]-2-thienyl}-1H-pyrazol-3-yl]ethanone O-methyloxime]"
4,5.00 to 6.00,"CC(C)(O)c1cc(-c2ccc(-c3ccc(F)c(C(F)(F)F)c3)cc2)n(-c2ccccc2Cl)n1 [Example 1299, 2-{1-(2-chlorophenyl)-5-[4′-fluoro-3′-(trifluoromethyl)biphenyl-4-yl]-1H-pyrazol-3-yl}propan-2-ol]"
5,> 6.00,"CC(C)(O)c1nn(-c2c(Cl)cccc2Cl)c(-c2ccc(-c3cccc(S(C)(=O)=O)c3)cc2)c1Cl [Example 138, 2-(4-chloro-1-(2,6-dichlorophenyl)-5-(3′-(methylsulfonyl)biphenyl-4-yl)-1H-pyrazol-3-yl)propan-2-ol]"
6,> 6.00,"CON(C)C(=O)c1cc(-c2ccc(-c3cccc(S(C)(=O)=O)c3)s2)n(-c2ccccc2Cl)n1 [Example 1162, 1-(2-chlorophenyl)-N-methyl-N-(methyloxy)-5-{5-[3-(methylsulfonyl)phenyl]-2-thienyl}-1H-pyrazole-3-carboxamide]"
